Patent publication US20030232797A1, “Novel derivatives of androstane and androstene with ascorbic acid and use thereof in treating or preventing various conditions, diseases, and disorders” (priority 2002, published 2003)
Counter-ions that a name gives are not always drawn.

C[C@]12CC[C@H](OP(=O)(O)OC3=C(O)C(C(O)CO)OC3=O)CC1=CCC1C2CC[C@@]2(C)C1CC[C@@H]2OP(=O)(O)OC1=C(O)C(C(O)CO)OC1=O (stereo partly drawn) [Diascorbyl diphosphate of androst-5ene-3β,17β-diol, tetrasodium salt]
Solubility in ethanol (ethanol): Slightly soluble | Solubility in water (water, 50 mg sample, 50 microliter portions every 10 minutes, ultrasonic bath): 10.6 %, w/w
